Assay: refractive index (other wavelength) (dimensionless); xn = mol fraction of the nth substance listed
Conditions: 313.15 K, 101 kPa, Liquid, Standard Abbe refractometry

CC(C)OC(C)C [diisopropyl ether] + CC(C)O
refractive index
Conditions	Wavelength=587.6 nm	Wavelength=589.3 nm	Wavelength=632.8 nm	Wavelength=644 nm
x1 = 0.0277	–	1.36835	1.36708	1.36678
x1 = 0.0507	–	1.36828	1.367	1.3667
x1 = 0.051	–	1.36822	1.36696	1.36665
x1 = 0.0717	–	1.36787	1.36659	1.36629
x1 = 0.1528	–	1.36718	1.3659	1.36561
x1 = 0.1553	–	1.36718	1.3659	1.36561
x1 = 0.1938	–	1.36694	1.36566	1.36537
x1 = 0.2029	–	1.3664	1.36512	1.36482
x1 = 0.245	–	1.36591	1.36465	1.36436
x1 = 0.297	–	1.36507	1.36381	1.36351
x1 = 0.2973	–	1.36529	1.36401	1.36372
x1 = 0.3068	–	1.36504	1.36377	1.36347
x1 = 0.398	–	1.3637	1.36244	1.36213
x1 = 0.4609	–	1.36297	1.36172	1.36142
x1 = 0.5434	1.36211	1.36206	1.36081	1.36051
x1 = 0.6032	1.36136	1.3613	1.36007	1.35977
x1 = 0.6371	1.36099	1.36094	1.3597	1.3594
x1 = 0.701	1.36025	1.36019	1.35895	1.35865
x1 = 0.754	1.35981	1.35976	1.35851	1.35821
x1 = 0.791	1.35941	1.35936	1.35812	1.35782
x1 = 0.8296	1.35902	1.35897	1.35772	1.35742
x1 = 0.8864	1.3589	1.35885	1.35758	1.35729
x1 = 0.8903	1.35833	1.35827	1.35704	1.35674
x1 = 0.9113	1.35809	1.35802	1.35679	1.3565
x1 = 0.9547	1.35761	1.35756	1.35631	–
x1 = 0.973	1.35727	1.35722	1.35599	–
x1 = 0.9771	1.35715	1.3571	1.35587	–
x1 = 1	1.357	1.35694	1.35572	–
